Assay results reported in PubChem BioAssay AID1288 (Columbia University Molecular Screening Center, 2008).
Active and inactive are the calls of the source. The rule behind the calls is not given here.

Legend:
[1] = test system: human endothelial cells, TNFa-induced E-selectin, imaging; experiment: E-selectin induction blockers, endothelial cells – imaging, retest plus dose response, cell count, confirmation (AID 1288);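 for inhibition: 0% = stimulated vehicle wells and 100% = unstimulated vehicle wells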
[2] = as above; settings: human endothelial cells, TNFa-induced E-selectin, imaging; for cell count: cell count toxicity, at 10 µM, stronger effect = lower value; for inhibition: at 2 µM, stronger effect = higher value

Structure (SMILES) | IC50 [1] | cell count [2] [%] | inhibition [2]
O=C(CS(=O)c1ccc(C(F)(F)F)cc1[N+](=O)[O-])Oc1ccccc1 (configuration not stated) | > 10 µM (inactive) | 88.5 | –
COc1ccc(-c2cc(C(=O)Nc3cnn(Cc4ccccc4C)c3)no2)cc1OC | 6.19 µM | 80.4 | –
Cc1cc(C)cc(NC(=O)c2ccc([N+](=O)[O-])o2)c1 | 2.11 µM | 98.3 | –
CN1C2CCC1/C(=C/c1ccccn1)C(=O)/C2=C\c1ccccn1 | 2.8 µM | 51.6 | –
Oc1ccc(N2CCN(c3ncnc4sc(-c5ccccc5)cc34)CC2)cc1 | 1.88 µM | 25.6 | –
Cc1ccc(Cl)c(NC(=O)COC(=O)c2ccccc2C(=O)c2ccc(Cl)c([N+](=O)[O-])c2)c1Cl | > 10 µM (inactive) | 96.8 | –
O=C(Nc1ccc2oc(-c3cccnc3)nc2c1)c1ccc([N+](=O)[O-])o1 | 2.73 µM | 54.4 | –
Cc1ccc(C(=O)OCn2ncc(Cl)c(Cl)c2=O)cc1 | > 10 µM (inactive) | 101 | –
O=C(OCn1ncc(Cl)c(Cl)c1=O)c1cccc(C(F)(F)F)c1 | > 10 µM (inactive) | 102 | –
COC(=O)C1CN(C#N)N(c2ccc(Cl)cc2)C12c1ccccc1-c1ccccc12 (configuration not stated) | > 10 µM (inactive) | 113 | –
C#CC(=O)N(c1cc(OC)ccc1OC)C(C(=O)NC1CCCC1)c1cccs1 (configuration not stated) | 9.61 µM | 33.9 | –
N#CC(C#N)=C1C=CC=CN1/C(=C\c1ccccc1Cl)C(=O)c1ccccc1 | 4.99 µM | 68.3 | –
O=C(Nc1ccccc1)C1=C(c2ccccc2)S(=O)(=O)CCS1(=O)=O | 7.63 µM | 77.8 | –
O=C(OCn1ncc(Cl)c(Cl)c1=O)c1ccc(F)cc1 | > 10 µM (inactive) | 107 | –
Cc1ccc2nc(-c3ccc(NC(=O)CCN4C(=O)c5ccccc5C4=O)cc3)sc2c1 | > 10 µM (inactive) | 107 | –
CN(CCC#N)C(=O)COC(=O)c1ccccc1C(=O)c1ccc(Cl)c([N+](=O)[O-])c1 | 1.37 µM | 15.6 | –
CN1/C(=C/C(=O)c2nc(S(C)(=O)=O)ncc2Cl)C(C)(C)c2ccccc21 | > 10 µM (inactive) | 97.9 | –
O=C(Nc1ccccc1)c1nnsc1S(=O)c1ccc(Cl)cc1 (configuration not stated) | 3.58 µM | 16.1 | –
Cc1cc(NC(=O)CSc2n[nH]c(N)n2)no1 | – | – | 14.1% (inactive)
Cc1ccc(S(=O)(=O)N2CCN(C(=O)C3COc4ccccc4O3)CC2)cc1C (configuration not stated) | – | – | -0.52% (inactive)
COc1cc(C(=O)OCCNC(=O)c2ccncc2)cc(OC)c1OC | – | – | 9.29% (inactive)
CCOC(=O)c1cccc(NC(=O)CSc2nnc(-c3ccoc3C)n2CCOC)c1 | – | – | -4.74% (inactive)
c1csc(C(c2nnnn2C2CCCC2)N2CCCC3(CCCCC3)C2)c1 (configuration not stated) | – | – | -3.21% (inactive)
COc1ccc(NC(=O)c2cc(-c3ccc(OC)c(OC)c3)on2)cc1OC | – | – | 9.77% (inactive)

Structure (SMILES) | IC50 [1] | cell count [2] [%] | inhibition [2]
COc1ccc(N=C2SCC(=O)N2c2ccc(OC)cc2)cc1 | – | – | -8.28% (inactive)
CC1(C)CC(=O)C(C=NCC2CCCO2)=C(O)C1 (configuration not stated) | – | – | 17.9% (inactive)
Cc1noc(C)c1S(=O)(=O)N1CCC(C(=O)N2CCN(Cc3ccc4c(c3)OCO4)CC2)CC1 | – | – | 7.72% (inactive)
COc1ccc(OCC2CNC(=O)O2)cc1 (configuration not stated) | – | – | 0.97% (inactive)
Cc1ccc(NC(=O)Nc2ccc3c(c2)N(C)C(=O)CS3)nc1 | – | – | 3.21% (inactive)
CC(Oc1ccc(Cl)cc1Cl)C(=O)N(Cc1ccco1)C1CCS(=O)(=O)C1 (configuration not stated) | – | – | 33.5% (inactive)
Cc1cc(SCc2cc(=O)[nH]c3ccccc23)nc2ccccc12 | – | – | -9.63% (inactive)
CCOC(=O)c1c(NC(=O)COC)sc2c1CCCC2 | – | – | 17.5% (inactive)
Cn1c(SCc2ccc(Br)cc2)nnc1-c1ccncc1 | – | – | 0.83% (inactive)
CN1CCN(C(c2ccc(F)cc2)c2nnnn2Cc2cccs2)CC1 (configuration not stated) | – | – | 10.2% (inactive)
CC(C(=O)O)C1SC(=O)NC1=O (configuration not stated) | – | – | 12.7% (inactive)
COc1ccc(-n2c(COc3ccccc3)nnc2SCC(N)=O)cc1 | – | – | 42.3% (inactive)
COc1ccc(-n2nc([N+](=O)[O-])c(=NCCc3ccc(Cl)cc3)n2O)cc1 | – | – | 6.09% (inactive)
CCC(C(=O)OC)n1c(-c2ccccc2)nc2ccccc2c1=O (configuration not stated) | – | – | 10.1% (inactive)
CC(C)C(c1nnnn1Cc1ccccc1)N1CCC(C(N)=O)CC1 (configuration not stated) | – | – | 9.62% (inactive)
CCCC(CCC)C(=O)NNc1cc(=O)c2c(=O)n(C)c(=O)n(C)c2[nH]1 | – | – | 5.15% (inactive)
Cc1nc(=O)c(-c2ccccc2)c(C)n1-c1ccc(S(N)(=O)=O)cc1 | – | – | 42.4% (inactive)
COc1ccc(C)cc1-n1nnnc1SCC(=O)Nc1cccnc1Cl | – | – | -16.5% (inactive)
Cc1[nH]nc2c1C1(C(=O)N(Cc3ccc(Cl)cc3)c3ccccc31)C(C#N)=C(N)O2 (configuration not stated) | – | – | 10.5% (inactive)
CN(C)S(=O)(=O)N1CCN(CC(=O)Nc2cc(Cl)ccc2Cl)CC1 | – | – | -3.1% (inactive)
C=CCn1c(COc2ccccc2)nnc1SCC(=O)O | – | – | 11.9% (inactive)
C=CCn1c(SCC(=O)NC)nc2sc3c(c2c1=O)CCC3 | – | – | 4.27% (inactive)
O=C1N(c2ccccc2)C2CS(=O)(=O)CC2N1c1ccc(Br)cc1 (configuration not stated) | – | – | 10.8% (inactive)
O=C(Nc1ccc2nsnc2c1)c1ccc2c(c1)OCO2 | – | – | 7.37% (inactive)

Structure (SMILES) | IC50 [1] | cell count [2] [%] | inhibition [2]
Cc1cc2cc(NC(=O)c3ccco3)ccc2[nH]1 | – | – | -3.69% (inactive)
CCS(=O)(=O)Nc1ccc(-c2cc(-c3ccccc3)c3cc(C)ccc3n2)cc1 | – | – | 0.49% (inactive)
COc1ccc(N2C(=O)CCC2(C#N)c2ccc(Br)cc2)cc1 (configuration not stated) | – | – | -2.45% (inactive)
CCOC(=O)C(C)Oc1cccc2c(=O)n(CC(=O)Nc3cccc(OC)c3)ccc12 (configuration not stated) | – | – | 22.4% (inactive)
CCC(=O)Nc1nnc(-c2ccccn2)o1 | – | – | 14.7% (inactive)
COCCOC(=O)c1c(NC(=O)CN2CCOCC2)sc(C(N)=O)c1C | – | – | 16.3% (inactive)
O=C(CSc1nc2ccccc2[nH]1)N1CCN(S(=O)(=O)c2ccc(Cl)cc2)CC1 | – | – | 3.87% (inactive)
Cc1nnc(SCC(=O)N(C)c2ccccc2)n1Cc1ccccc1 | – | – | 1.26% (inactive)
O=C(O)C1CCCN1S(=O)(=O)c1ccc(Br)s1 (configuration not stated) (tested in a mixture with another compound) | – | – | 6.99% (inactive)
CC(C)=C1SC(N2CCN(c3ccc(C)cc3)CC2)=NC1=O | – | – | -3.72% (inactive)
Cc1cc(NC(=O)CSc2nnc(Cc3ccccc3)n2C)no1 | – | – | 1.71% (inactive)
C=CCn1c(SCC(=O)NCc2ccccc2)nnc1-c1ccccc1O | – | – | -0.67% (inactive)
CC(OC(=O)c1ccco1)C(=O)NC1CCCCC1 (configuration not stated) | – | – | 18.2% (inactive)
O=C(c1cnccn1)N1CCN(c2ccccc2)CC1 | – | – | 30.4% (inactive)
CCOC(=O)CCc1nc2ccccc2[nH]c1=O | – | – | 15.7% (inactive)
COC(=O)CN1C(=S)N(c2ccc(Cl)cc2)C(=O)C1CC(=O)Nc1ccc(Cl)cc1 (configuration not stated) | – | – | -1.33% (inactive)
CCCOC(=O)c1ccc(Cl)c(NC(=O)c2ccc(-c3ccccc3)cc2)c1 | – | – | 1.66% (inactive)
C=CCn1c(=O)c2ccccc2n2c(SCC(=O)N3CCCc4ccccc43)nnc12 | – | – | 6.51% (inactive)
C/C(=N\NC(=O)CC1N=C(Cc2ccccc2)NNC1=O)c1ccc(C)cc1 (configuration not stated) | – | – | 3.58% (inactive)
COc1ccc(S(=O)(=O)Nc2cccc(S(=O)(=O)N3CCCCCC3)c2)cc1 | – | – | 31% (inactive)
COc1ccc(Cc2nnc(SCC(=O)NC3CCCC3)o2)cc1 | – | – | 40.2% (inactive)
CCn1c(SCc2nc(CC(=O)Nc3ccccc3OC)no2)nnc1-c1cccs1 | – | – | 7.75% (inactive)
Cc1cc(C)cc(C(=O)Oc2coc(CSc3nnc(NC(=O)C4CC4)s3)cc2=O)c1 | – | – | 6.25% (inactive)
CCOC(=O)N1CCN(C(=S)NC(=O)c2cncc(Br)c2)CC1 | – | – | 19.8% (inactive)

Structure (SMILES) | IC50 [1] | cell count [2] [%] | inhibition [2]
COC(=O)c1cc2sc(Cl)cc2n1CC(=O)Nc1cccc(SC)c1 | – | – | 2.57% (inactive)
O=C(Oc1nsnc1N1CCOCC1)N1CCOCC1 | – | – | 2.57% (inactive)
CC(=O)c1ccc(NC(=O)Nc2ccc([N+](=O)[O-])cc2C)cc1 | – | – | 48% (inactive)
CN(CC(=O)Nc1ccc(Cl)cc1)c1ccc(S(=O)(=O)N2CCCCC2)cc1[N+](=O)[O-] | – | – | 7.17% (inactive)
COc1ccc(OC)c2sc(NC(=O)CCS(=O)(=O)c3ccccc3)nc12 | – | – | 5.59% (inactive)
COc1cc(NC2c3ncccc3C(=O)N2Cc2ccco2)cc(OC)c1 (configuration not stated) | – | – | 7.75% (inactive)
CCOC(=O)Cc1nnc(NC(=O)CSc2ccc(Cl)cc2)s1 | – | – | 2.82% (inactive)
CCn1c(SCC(=O)Nc2ccccc2)nnc1C1CCCCC1 | – | – | 2.46% (inactive)
CC(C)Cn1c(-c2cccs2)nc2ccccc21 | – | – | 25.7% (inactive)
COc1cc(CN2CCN(c3ccc(C)cc3)CC2)cc([N+](=O)[O-])c1O | – | – | 24.7% (inactive)
OCCNCCOc1ccc(Cl)c(Cl)c1 | – | – | 1.74% (inactive)
COc1cc(NC(=O)CN2CCC(C)CC2)c(C)cc1[N+](=O)[O-] | – | – | 8.41% (inactive)
CC(C)Cn1cnc2c1c(=O)n(CC(=O)Nc1ccc3c(c1)OCO3)c(=O)n2Cc1ccccc1 | – | – | 14.6% (inactive)
CCNC(=O)CN(CCc1ccccc1)S(C)(=O)=O | – | – | 7.43% (inactive)
Nc1ccc2c(c1)N1CCN=C1S2 | – | – | 11.1% (inactive)
NC(=O)c1ccc(-c2ccc(Br)cc2)o1 | – | – | 36.5% (inactive)
COc1ccc(CNC(=O)C(CCSC)NS(=O)(=O)c2ccccc2F)cc1 (configuration not stated) | – | – | 5.1% (inactive)
O=C(CSc1nnc(CNc2ccc(F)cc2)o1)N1CCCc2ccccc21 | – | – | 2.29% (inactive)
COc1ccc(C2CC(O)(C(C)(C)O)NO2)cc1 (configuration not stated) | – | – | -4.94% (inactive)
CCOc1cc(-c2nn3cnnc3s2)cc(OCC)c1OCC | – | – | 4.31% (inactive)
CC12CCC3(CO)COC(c4ccccc4O1)C2C3 (configuration not stated) | – | – | 13.6% (inactive)
CCC(C)(C)n1nnnc1C(c1ccc(OC)c(OC)c1)N1CCN(c2ccccc2)CC1 (configuration not stated) | – | – | 2.72% (inactive)
